What was measured:
Format in all cases: cell-based, human
NLRP3 = NLRP3 expression by qPCR in primary monocytes; details: 100 μM, 6 hours, GAPDH-standardized, ratio relative to control
Procedure: (§1) FIG. 3. High levels of oxidative stress and increased nucleotide metabolites in IMH individuals can induce cytokine production and expression of inflammasome genes in primary monocytes. Broad-coverage metabolomics profiling was conducted on available serum samples from year 2011 (9 IML and 11 IMH individuals). […] Functional annotation and pathway analysis was conducted using MetPA. A significant enrichment for several metabolic pathways was identified for these metabolites (P<0.05) (a). Conversion of cysteine to cystine; and from arachidonic acid to 8-isoprostane, in the presence of ROS (b). Increased circulating levels of cystine and 8-isoprostane in IMH (b and c) indicate higher levels of oxidative stress (c and d). Adenine, DL-4-hydroxy-3-methoxymandelic acid (vanillylmandelate) (MMA), scyllo-inositol and N4-acetylcytidine (N4A) were selected based on their levels of significance (Q<0.001, see Table 5) and representing different metabolic pathways, to assess their ability to induce IL1FC and expression of NLRC4 in primary monocytes from four healthy donors (shown are the results of one representative experiment). Adenosine was used as a positive control. A significant induction of IL1FC is observed for adenosine and adenine, but not with other compounds (e). The highest dose of each compound (100 μM) was used to determine expression of NLRC4 and NLRP3 by qPCR on the same samples used for cytokine determination (e). […] As previously shown in mice, adenosine treatment up-regulates NLRP3 gene expression (P<0.01) (f). Expression of GAPDH was used to standardize the samples, and the results are expressed as a ratio relative to control. Error bars reflect experimental variability.
(§2) The dysfunction in nucleotide metabolism and in mitochondrial bioenergetics described above may explain the generation of circulating metabolites and chronic oxidative stress, respectively. To study whether the circulating metabolites found in higher levels in the sera from IMH compared to IML subjects up-regulate NLRC4 gene expression and/or cytokine production, four candidate compounds identified from our analysis were selected. They represent distinct metabolic pathways. These included adenine (purine metabolism), DL-4-hydroxy-3-methoxymandelic acid (vanillylmandelate) (phenylalanine and tyrosine metabolism), scyllo-inositol (inositol metabolism) and N4-acetylcytidine (N4A) (pyrimidine metabolism) (Table 5). Adenosine was included as a positive control for IL1FC production. Primary monocytes from four healthy donors were isolated from fresh […] blood and incubated with increasing concentrations of the indicated compounds for 6 hours. […] We also tested whether these stimulations lead to changes in the expression of NLRC4 and NLRP3 (used as a positive control for adenosine stimulation). […] More biochemical studies are necessary to address this.
(§3) Adenosine, adenine, DL-4-hydroxy-3-methoxymandelic acid, scyllo-inositol were all purchased form Sigma (Sigma-Aldrich, St. Louis, Mo.) and N4-acetylcytidine was purchased from Santa Cruz Biotechnology (Dallas, Tex.). Compounds were tested at the indicated concentrations on isolated monocytes from a healthy donor. […] Samples were then transferred to the Human Immune Monitoring Core at Stanford for quantification of cytokines, chemokines and growth factors using the 63-plex Luminex system, as described above. […]

NLRC4 = NLRC4 expression by qPCR in primary monocytes; details: 100 μM, 6 hours, GAPDH-standardized, ratio relative to control
Procedure: as §1, §2, §3

[1] = tested on: differentiated THP-1 cells; assay: Cytokine secretion (ELISA) from differentiated THP-1 cells; details: 6 hr; for production of IL-1β / production of IL-18 / production of TNF-α: without ATP pulse
Procedure: FIG. 4. N4-Acetylcytidine and Adenine induce the NLRC4 inflammasome. (a) Differentiated THP-1 cells were treated with ATP (5 mM, 30 min), or primed with LPS (1 μg/ml, 4 hr) and then pulsed with ATP; or treated with indicated concentrations (mM) of Adenine (Ad) or N4-Acetylcytidine (N4A) alone for 6 hr or (b) in combination, and then pulsed or not with ATP. Secretion of cytokines IL-1β, IL-18 and TNF-α were measured by ELISA from cell culture supernatants. (c) Differentiated THP-1 cells were treated with compounds as indicated (1 mM N4A; 300 μM Ad) for 6 hr or ATP 5 mM 30 min, cells were lysed and cell lysates were then immunoblotted with various antibodies to monitor expression of NLRs, Casp1, and prolL-1β. (d) Differentiated THP-1 cells were treated with compounds as before and cell lysates were submitted to immunoprecipitation with Biotinyl-YVAD-fmk peptide. Complexes were then recovered by using Streptavidin-sepharose beads and immunoblotted with anti-Caspase-1 p10 antibody. (e) Differentiated THP-1 cells were treated with compounds as before in the presence or not of Ac-YVAD-fmk or control DMSO, and IL-1β secretion was measured. (f) Differentiated WT or stable shTHP-1 cell lines were treated with compounds as before (1 mM N4A; 300 μM Ad) and IL-1β secretion was measured. To the right, western-blots showing protein expression of NLRC4 in stable shTHP-1 cell lines. (g) Bone marrow-derived macrophages from WT or KO mice as indicated were isolated and treated with combination of compounds (1 mM N4A; 300 μM Ad), and IL-1β secretion was measured. Data are expressed as concentration of cytokines (pg/ml) (mean±SD; n=3). * P<0.05, ** P<0.01.
In parallel experiments, differentiated THP-1 cells and a human monocytic cell Line were treated to address whether the metabolites N4A and adenine, alone or in combination, could induce inflammasome activation and cytokine secretion in vitro.
Adult male mice (12-18 week old) were divided into two groups: PBS or compound treated-mice (N4-Acetylcytidine+Adenine dissolved in PBS). Compound-treated mice were injected with N4-Acetylcytidine and Adenine (stock solution 20 mM each, 100 ul/25 g body weight, retro-orbital injection, once daily) or PBS. After 3 weeks of treatment, while they continued receiving daily injections of PBS or N4A+Adenine, mice from both groups were administered an infusion of human angiotensin II (AngII, #A9525, Sigma-Aldrich, St. Louis, Mo.) for another 2 weeks. Angll (140 ng/kg per min) was dissolved in 100 ul 20 mM (N4A+Adenine) or in 100 ul PBS and loaded into a small osmotic pump (Durect Corporation, Cupertino, Calif., USA). The osmotic pump was then implanted subcutaneously on the dorsal side around the neck of mice under anesthesia ([…]). Systolic blood pressure was measured every other day in conscious mice using tail-cuff plethysmography (Vistech System BP-2000, Apex, N.C., USA). Experiments with human THP-1 cells and primary blood platelets THP-1 monocytic cell lines were cultured in 6-well plates in RPMI media (supplemented with 10% Fetal Bovine Serum) and differentiated overnight with TPA (10 ng/ml). The day after, adherent cells were washed with fresh media and treated with agonists LPS ([…], 4 hrs) and ATP (5 mM, 30 min) or compounds Adenine/N4-Acetylcytidine at various concentrations.

primary monocytes = assay: IL1FC (IL-1α, IL-1β) production in primary monocytes treated with metabolites; details: primary monocytes from four healthy donors, increasing concentrations, 6 hours
Procedure: as §1
The dysfunction in nucleotide metabolism and in mitochondrial bioenergetics described above may explain the generation of circulating metabolites and chronic oxidative stress, respectively. To study whether the circulating metabolites found in higher levels in the sera from IMH compared to IML subjects up-regulate NLRC4 gene expression and/or cytokine production, four candidate compounds identified from our analysis were selected. They represent distinct metabolic pathways. […]
as §3, with “Tex.).” for “Tex.). Compounds were tested at the indicated concentrations on isolated monocytes from a healthy donor.”

primary neutrophils = assay: Primary neutrophil activation (RANKL, degranulation, IL-1β secretion); details: 24 hr, various concentrations
Procedure: (b) Primary neutrophils were isolated from blood of healthy donors and incubated for 24 hr with various concentrations of adenine or N4A alone or in combination, and RANK-L+ cells were determined within the CD66b+ population. (c) Primary neutrophils were treated with N4A (1 mM) and/or adenine (1 mM) and the % of degranulated population was measured for each donor. (d) Primary neutrophils were treated as before with compounds as indicated and IL-1β secretion was measured from cell culture supernatants for each donor. Data are expressed as concentration of cytokines (pg/ml), or as fold increase with respect to non-treated (NT) condition as indicated. * P<0.05, ** P<0.01
In addition, the frequencies of 22 different cell subsets in IMH and IML older adults (N=22) were estimated and in a separate analysis, such frequencies were compared between young and older adults (N=86). For these analyses Cibersort (Newman et al. Robust enumeration of cell subsets from tissue expression profiles. Nature Methods 12, 453-457, 2015) was used, which uses gene expression profiles to characterize cell subset composition in complex tissues, such as whole blood. Significant differences were found in the estimated frequencies of circulating mast cells, as well as in the CD4 T regulatory cell compartment between young and older adults (P<0.01). […]

primary platelets = assay: Platelet activation, CD61/CD62P membrane expression by flow cytometry; details: platelets of two healthy donors, 6 hrs at 37° C., various concentrations, CD61 and CD62P+
Procedure: Primary platelets were isolated from the blood of two donors and incubated for 6 hr at 37° C. with thrombin, or ADP, or various concentrations of Adenine or N4-Acetylcytidine. Platelet activation was monitored by measuring membrane expression of CD61 and CD62P by flow cytometry. Data are representative of at least three independent experiments with similar results. […] Thus, it was sought to determine whether [MUT] and adenine were able to activate human platelets in vitro. To do so, platelets were isolated from the blood of two healthy donors and incubated for 6 hrs at 37° C. with various concentrations of adenine or [MUT]. Thrombin, and ADP were used as controls and platelet activation was monitored by measuring membrane expression of CD61 and CD62P+ cells by flow cytometry. […] Human primary platelets were prepared from whole blood using a venepuncture in EDTA tube after a 20 min centrifugation at 1000 rpm without acceleration and break. Then the supernatant was harvested and 1 μM PGE1 was added. […] Platelets were then stimulated with thrombin (at 0.5 U/ml), ADP, or with the indicated concentrations of [MUT] or adenine, and activation was monitored by flow cytometry using 25 immunostaining of membrane markers with anti-CD61 (marker of platelet population), and anti-CD62-P (marker of activation involved in aggregation).

[2] = then pulsed with ATP (5 mM, 30 min)

Structure (SMILES)	expression of NLRP3 (NLRP3)	expression of NLRC4 (NLRC4)	secretion of IL-1β [1, 2]	secretion of IL-18 [1, 2]	production of IL-1β [1]	production of IL-18 [1]	production of TNF-α [1]	IL-1α production (primary monocytes)	IL-1β production (primary monocytes)	RANKL+ cells within the CD66b population (primary neutrophils)	percentage of activated platelets (primary platelets)
COc1cc(C(O)C(=O)O)ccc1O (racemic) [DL-4-hydroxy-3-methoxymandelic acid]	No effect	No effect									
CC(=O)Nc1ccn([C@@H]2O[C@H](CO)[C@@H](O)[C@H]2O)c(=O)n1 [N4A, N4-acetylcytidine]	induced both NLRP3 and NLRC4	induced both NLRP3 and NLRC4	potently induced secretion	potently induced secretion	neither incubation with adenine nor with N4A alone had an effect	neither incubation with adenine nor with N4A alone had an effect	neither incubation with adenine nor with N4A alone had an effect				
Nc1ncnc2[nH]cnc12 [adenine]	No effect	No effect			neither incubation with adenine nor with N4A alone had an effect	neither incubation with adenine nor with N4A alone had an effect	neither incubation with adenine nor with N4A alone had an effect	significant increase	significant increase	induced a potent increase	robustly induced a dose-dependent increase
Nc1ncnc2c1ncn2[C@@H]1O[C@H](CO)[C@@H](O)[C@H]1O [adenosine, reference compound]	increased expression of NLRP3	no increase in NLRC4 was observed						significant increase	significant increase		
O[C@H]1[C@H](O)[C@@H](O)[C@H](O)[C@@H](O)[C@@H]1O [scyllo-inositol]	No effect	No effect									
